Reference: patent US20100048621A1, “MEDICAMENT FOR TREATING CHRONIC OBSTRUCTIVE PULMONARY DISEASE” (priority 2007, published 2010)

Test system: elastase-treated model mouse of COPD
Assay: Combination effect of cilostazol/probucol for pulmonary disorder in mouse treated with human neutrophil elastase (COPD model)
Format: in vivo, C57BL/6J mouse
Conditions: free feeding from 7 days before intratracheal human neutrophil elastase 20 U/50 μL, lungs 3 weeks after elastase, mean±standard deviation, control 178.8±22.4, normal 51.4±1.9, P<0.01 vs control
Text: Combination effect of cilostazol/probucol for pulmonary disorder in C57BL/6J mouse treated with elastase produced from human neutrophil.
• Animals: female C57BL/6J mice (5 weeks old) which were purchased from Charles River Laboratories Japan, Inc. were used.
Group composition: the following 5 groups. • Non-treated (normal control) group: n=4 • Elastase-treated group (control group): n=6 • Elastase-treated, 0.3% cilostazol-administrated group: n=6 • Elastase-treated, 0.5% probucol-administrated group: n=6 • Elastase-treated, (0.3% cilostazol+0.5% probucol)−administrated group: n=6
Female C57BL/6J mice (5 weeks old) were divided into the given groups by a stratified randomization (using an SAS software, R 8.1) based on each body weight on the starting day of administration. Shortly after the group division, a MF feed was given to the non-treated group and the control group, and a mixed feed in which cilostazol or/and probucol was added in the given ratio was given to the medicament(s)-treated groups, in free feeding. […]
The following groups were statistically analyzed in order to study about the effect of the single-administration and combination-administration of the medicament(s). • 1) Elastase-treated group (control group) • 2) 0.3% Cilostazol-administrated group • 3) 0.5% Probucol-administrated group • 4) (0.3% Cilostazol+0.5% probucol)−administrated group […]

SMILES	mean linear intercept of pulmonary alveolus (0.3% cilostazol in mixed feed) [μm]	mean linear intercept of pulmonary alveolus (0.5% probucol in mixed feed) [μm]
O=C1CCc2cc(OCCCCc3nnnn3C3CCCCC3)ccc2N1 [cilostazol, 6-[4-(1-cyclohexyl-1H-tetrazol-5-yl)butoxy]-3,4-dihydrocarbostyril]	116.9±14.3	–
CC(C)(Sc1cc(C(C)(C)C)c(O)c(C(C)(C)C)c1)Sc1cc(C(C)(C)C)c(O)c(C(C)(C)C)c1 [probucol, 4,4′-isopropylidenedithiobis[2,6-di-tert-butylphenol]]	–	86.2±4.8
